Measurements: patent publication US10786570B2, “Ferritin nanoparticle compositions and methods to modulate cell activity” (The Rockefeller University, priority 2011, dated 2020)

Legend:
Format in all cases: cell-based
[1] = test system: HEK 293T cells expressing TRPV1^His and Ca2+-dependent human insulin construct; assay: RF dependent insulin gene expression (real-time PCR); conditions: ruthenium red
Method: (§1) RF dependent release of calcium dependent human insulin: 24 h prior to the study, cells were placed in serum free medium at 32° C. to ensure minimal activation of TRPV1 and calcium dependent pathways. On the day of study, cells were preincubated for 30 min in 500 μl PBS or 500 μl of functionalized iron oxide nanoparticles (1 mg/ml) resuspended in PBS. Cells were washed three times in PBS before incubation in 300 μl of calcium imaging buffer at room temperature (control) or in a RF field at room temperature. The supernatant was removed at 15, 30, 45 or 60 min depending on the study, spun to remove cell debris and frozen at −80° C. until assay. For gene expression analysis, cells from the supernatant and cover glass were lysed and the lysate stored at […] until RNA purification. For apoptosis studies, the cells were incubated with functionalized nanoparticles at 1, 2, 4 or 8 mg/ml before RF treatment and immunocytochemistry. For RF dependent time course from stable PC12 cells, cells were left in serum containing medium prior to treatment to more accurately replicate conditions in vivo before performing the studies as described above. Medium was removed for assay at 15 and 30 mins.
(§2) For studies examining the role of TRP channels in RF mediated proinsulin release, ruthenium red (100 μM) was added to the calcium imaging buffer. […]

[2] = test system: HEK 293T cells expressing TRPV1^His and Ca2+-dependent human insulin construct; assay: RF dependent proinsulin release (ELISA)
Method: as §1, with “For RF dependent time course from stable PC12 cells, cells were left in serum containing medium prior to treatment to more accurately replicate conditions in vivo before performing the studies as described above. Medium was removed for assay at 15 and 30 mins.” left out
(§3) Assays. Proinsulin was measured in cell supernatants by ELISA (Alpco, Salem, N.H.) according to manufacturer's protocol. Blood glucose was determined using a Breeze 2 glucometer (Bayer; Leverkusen, Germany). […] Plasma levels of human insulin, produced by xenografts, were determined in mouse plasma by human specific ELISA (Alpco).

[3] = test system: HEK 293T cells transfected with TRPV1, BAPTM and calcium dependent human insulin; assay: RF dependent insulin gene expression, dual component system; conditions: ruthenium red, TRPV1 BAP system
Method: as §1, §2

[4] = test system: HEK 293T cells transfected with TRPV1, BAPTM and calcium dependent human insulin; assay: RF dependent proinsulin release, dual component system; conditions: ruthenium red, TRPV1 BAP system
Method: as §1, with “For RF dependent time course from stable PC12 cells, cells were left in serum containing medium prior to treatment to more accurately replicate conditions in vivo before performing the studies as described above. Medium was removed for assay at 15 and 30 mins.” left out
as §3

SMILES | Effect on RF dependent insulin gene expression [1] | Effect on RF dependent proinsulin release ([2]; ruthenium red 100 μM in calcium imaging buffer) | Effect on RF dependent insulin gene expression [3] | Effect on RF dependent proinsulin release [4] | Effect on RF dependent proinsulin release ([2]; Tacrolimus 100 nM, preincubation 24 hours)
N.N.N.N.N.N.N.N.N.N.N.N.N.N.[Cl-].[Cl-].[Cl-].[Cl-].[Cl-].[Cl-].[O-2].[O-2].[Ru+3].[Ru+3].[Ru+4] [ruthenium red] | blocked | blocked | blocked | blocked | –
C=CC[C@@H]1/C=C(\C)C[C@H](C)C[C@H](OC)[C@H]2O[C@@](O)(C(=O)C(=O)N3CCCC[C@H]3C(=O)O[C@H](/C(C)=C/[C@@H]3CC[C@@H](O)[C@H](OC)C3)[C@H](C)[C@@H](O)CC1=O)[C@H](C)C[C@@H]2OC [tacrolimus, Tacrolimus] | – | – | – | – | blocked
